Reference: patent US10752640B2, “Compounds active towards bromodomains” (NUEVOLUTION A/S, priority 2014, dated 2020)

Target: BRD4 protein (Homo sapiens, UniProt O60885)
Test: FRET assay, half maximal inhibitory concentration (IC50)
Type: binding
Conditions: BRD4 protein 50 nM, Biotin-H4KAc4 peptide 12.5 nM
Method in brief: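 HTRF: 50 nM BRD4 preincubated 30 min at room temperature with compound (10-fold series from 50 μM in 12.5% DMSO) in 50 mM HEPES pH 7.5, 100 mM NaCl, 0.05% CHAPS. Then 12.5 nM biotin-H4KAc4 peptide for 30 min, and anti-GST XL665 (10 nM) plus streptavidin cryptate (2.4 nM) with 0.4 M KF for 1 h. IC50 by variable-slope fit.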

[1] = A Further List of Classification

Cc1cc(O)nc2ccc(NC(=O)c3cc(C(C)O)ncc3N3CCCC3CN(C)C)cc12 (centres unmarked) [Compound-213, 5-(2-((dimethylamino)methyl)pyrrolidin-1-yl)-N-(2-hydroxy-4-methylquinolin-6-yl)-2-(1-hydroxyethyl)isonicotinamide]
IC50 (List of Classification): < 200 nM

CN1C(=O)CCc2cc(NC(=O)c3ccccc3N3CCOCC3)ccc21 [S1, N-(1-methyl-2-oxo-3,4-dihydroquinolin-6-yl)-2-morpholino-benzamide]
IC50 [1]: 1000 to 10000 nM

Cc1cc(O)nc2ccc(NC(=O)c3ccccc3N3CCOCC3)cc12 [S2, N-(2-hydroxy-4-methyl-6-quinolyl)-2-morpholino-benzamide]
IC50 [1]: 200 to 500 nM

Cc1ccc(C(=O)Nc2ccc3c(c2)CCC(=O)N3C)cc1S(=O)(=O)NC1CCCC1 [S3, 3-(cyclopentylsulfamoyl)-4-methyl-N-(1-methyl-2-oxo-3,4-dihydroquinolin-6-yl)benzamide]
IC50 [1]: 1000 to 10000 nM

CN1C(=O)CCc2cc(NC(=O)c3cccnc3N3CCOCC3)ccc21 [S4, N-(1-methyl-2-oxo-3,4-dihydroquinolin-6-yl)-2-morpholino-pyridine-3-carboxamide]
IC50 [1]: 1000 to 10000 nM

CN1CCN(c2ccccc2C(=O)Nc2ccc3c(c2)OCC(=O)N3)CC1 [S5, 2-(4-methylpiperazin-1-yl)-N-(3-oxo-4H-1,4-benzoxazin-7-yl)benzamide]
IC50 [1]: > 10000 nM

CN1CCN(c2ccccc2C(=O)Nc2ccc3c(c2)CCC(=O)N3C)CC1 [S6, N-(1-methyl-2-oxo-3,4-dihydroquinolin-6-yl)-2-(4-methylpiperazin-1-yl)benzamide]
IC50 [1]: > 10000 nM

CN1CCN(c2ccccc2C(=O)Nc2ccc3c(c2)OCC(=O)N3C)CC1 [S7, N-(4-methyl-3-oxo-1,4-benzoxazin-7-yl)-2-(4-methylpiperazin-1-yl)benzamide]
IC50 [1]: > 10000 nM

CN1C(=O)CCc2cc(NC(=O)c3ccccc3N3CCN(c4cnccn4)CC3)ccc21 [S8, N-(1-methyl-2-oxo-3,4-dihydroquinolin-6-yl)-2-(4-pyrazin-2-ylpiperazin-1-yl)benzamide]
IC50 [1]: > 10000 nM

CN1C(=O)CCc2cc(NC(=O)c3cc([N+](=O)[O-])ccc3N3CCOCC3)ccc21 [S9, N-(1-methyl-2-oxo-3,4-dihydroquinolin-6-yl)-2-morpholino-5-nitro-benzamide]
IC50 [1]: > 10000 nM

Cc1cc(O)nc2ccc(NC(=O)c3ccccc3N3CCN(C)CC3)cc12 [S10, N-(2-hydroxy-4-methyl-6-quinolyl)-2-(4-methylpiperazin-1-yl)benzamide]
IC50 [1]: 1000 to 10000 nM

Cc1cc(O)nc2ccc(NC(=O)c3ccccc3N3CCN(c4cnccn4)CC3)cc12 [S11, N-(2-hydroxy-4-methyl-6-quinolyl)-2-(4-pyrazin-2-ylpiperazin-1-yl)benzamide]
IC50 [1]: 1000 to 10000 nM

Cc1cc(O)nc2ccc(NC(=O)c3cc(S(N)(=O)=O)ccc3N3CCOCC3)cc12 [S12, N-(2-hydroxy-4-methyl-6-quinolyl)-2-morpholino-5-sulfamoyl-benzamide]
IC50 [1]: < 200 nM

CN1C(=O)CCc2cc(NC(=O)c3cc(S(N)(=O)=O)ccc3N3CCOCC3)ccc21 [S13, N-(1-methyl-2-oxo-3,4-dihydroquinolin-6-yl)-2-morpholino-5-sulfamoyl-benzamide]
IC50 [1]: 1000 to 10000 nM

Cc1cc(O)nc2ccc(NC(=O)c3cc(N4C(=O)CCC4=O)ccc3N3CCOCC3)cc12 [S14, 5-(2,5-dioxopyrrolidin-1-yl)-N-(2-hydroxy-4-methyl-6-quinolyl)-2-morpholino-benzamide]
IC50 [1]: 200 to 500 nM

Cc1cc(O)nc2ccc(NC(=O)c3cc(NS(=O)(=O)c4ccccc4)ccc3N3CCN(C)CC3)cc12 [S15, 5-(benzenesulfonamido)-N-(2-hydroxy-4-methyl-6-quinolyl)-2-(4-methylpiperazin-1-yl)benzamide]
IC50 [1]: 500 to 1000 nM

CCS(=O)(=O)Nc1ccc(N2CCN(C)CC2)c(C(=O)Nc2ccc3nc(O)cc(C)c3c2)c1 [S16, 5-(ethylsulfonylamino)-N-(2-hydroxy-4-methyl-6-quinolyl)-2-(4-methylpiperazin-1-yl)benzamide]
IC50 [1]: 1000 to 10000 nM

Cc1cc(O)nc2ccc(NC(=O)c3cc([N+](=O)[O-])ccc3N3CCOCC3)cc12 [S17, N-(2-hydroxy-4-methyl-6-quinolyl)-2-morpholino-5-nitro-benzamide]
IC50 [1]: < 200 nM

Cc1cc(O)nc2ccc(NC(=O)c3cc(S(=O)(=O)N4CCCCC4)ccc3N3CCOCC3)cc12 [S19, N-(2-hydroxy-4-methyl-6-quinolyl)-2-morpholino-5-(1-piperidylsulfonyl)benzamide]
IC50 [1]: < 200 nM

Cc1cc(O)nc2ccc(NC(=O)c3cc(S(=O)(=O)N4CCOCC4)ccc3N3CCOCC3)cc12 [S20, N-(2-hydroxy-4-methyl-6-quinolyl)-2-morpholino-5-morpholinosulfonyl-benzamide]
IC50 [1]: < 200 nM

Cc1cc(O)nc2ccc(NC(=O)c3cccc(CN4CCNCC4)c3)cc12 [S21, N-(2-hydroxy-4-methyl-6-quinolyl)-3-(piperazin-1-ylmethyl)benzamide]
IC50 [1]: 500 to 1000 nM

Cc1cc(O)nc2ccc(NC(=O)c3cc([N+](=O)[O-])ccc3N(C)C)cc12 [S22, 2-(dimethylamino)-N-(2-hydroxy-4-methyl-6-quinolyl)-5-nitro-benzamide]
IC50 [1]: 200 to 500 nM

CNS(=O)(=O)c1cccc(C(=O)Nc2ccc3nc(O)cc(C)c3c2)c1 [S23, N-(2-hydroxy-4-methyl-6-quinolyl)-3-(methylsulfamoyl)benzamide]
IC50 [1]: > 10000 nM

Cc1cc(O)nc2ccc(NC(=O)c3cccc(CN4CCCC4=O)c3)cc12 [S24, N-(2-hydroxy-4-methyl-6-quinolyl)-3-[(2-oxopyrrolidin-1-yl)methyl]benzamide, reference compound]
IC50 [1]: > 10000 nM

Cc1cc(O)nc2ccc(NC(=O)c3cc([N+](=O)[O-])ccc3N3CCCC3)cc12 [S25, N-(2-hydroxy-4-methyl-6-quinolyl)-5-nitro-2-pyrrolidin-1-yl-benzamide]
IC50 [1]: < 200 nM

Cc1cc(O)nc2ccc(NC(=O)c3cccc(S(=O)(=O)NCC(N)=O)c3)cc12 [S26, 3-[(2-amino-2-oxo-ethyl)sulfamoyl]-N-(2-hydroxy-4-methyl-6-quinolyl)benzamide]
IC50 [1]: > 10000 nM

Cc1cc(O)nc2ccc(NC(=O)c3cc(S(=O)(=O)N(C)C)ccc3N3CCCC3)cc12 [S27, 5-(dimethylsulfamoyl)-N-(2-hydroxy-4-methyl-6-quinolyl)-2-pyrrolidin-1-yl-benzamide]
IC50 [1]: < 200 nM

Cc1cc(O)nc2ccc(NC(=O)c3cc(N4CCOCC4)ccc3NS(C)(=O)=O)cc12 [S28, N-(2-hydroxy-4-methyl-6-quinolyl)-2-(methanesulfonamido)-5-morpholino-benzamide]
IC50 [1]: 200 to 500 nM

Cc1cc(O)nc2ccc(NC(=O)c3cccc(N4CCCC4)c3)cc12 [S29, N-(2-hydroxy-4-methyl-6-quinolyl)-3-pyrrolidin-1-yl-benzamide, reference compound]
IC50 [1]: > 10000 nM

Cc1cc(O)nc2ccc(NC(=O)c3ccc(N)c([N+](=O)[O-])c3)cc12 [S30, 4-amino-N-(2-hydroxy-4-methyl-6-quinolyl)-3-nitro-benzamide, reference compound]
IC50 [1]: > 10000 nM

NS(=O)(=O)c1ccc(N2CCOCC2)c(C(=O)Nc2ccc3[nH]c(=O)cc(C(F)(F)F)c3c2)c1 [S32, 2-morpholino-N-[2-oxo-4-(trifluoromethyl)-1H-quinolin-6-yl]-5-sulfamoyl-benzamide]
IC50 [1]: 1000 to 10000 nM

Cc1cc(O)nc2ccc(NC(=O)c3cc(S(=O)(=O)N(C)C)ccc3F)cc12 [S33, 5-(dimethylsulfamoyl)-2-fluoro-N-(2-hydroxy-4-methyl-6-quinolyl)benzamide]
IC50 [1]: > 10000 nM

Cc1cc(O)nc2ccc(NC(=O)c3cc(S(=O)(=O)N4CCOCC4)ccc3Br)cc12 [S34, 2-bromo-N-(2-hydroxy-4-methyl-6-quinolyl)-5-morpholinosulfonyl-benzamide]
IC50 [1]: > 10000 nM

O=C(Nc1ccc2[nH]c(=O)cc(O)c2c1)c1cc(S(=O)(=O)N2CCOCC2)ccc1N1CCOCC1 [S35, N-(4-hydroxy-2-oxo-1H-quinolin-6-yl)-2-morpholino-5-morpholinosulfonyl-benzamide]
IC50 [1]: < 200 nM

Cc1cc(O)nc2ccc(NC(=O)c3cccc(S(=O)(=O)N4CCN(C)CC4)c3)cc12 [S36, N-(2-hydroxy-4-methyl-6-quinolyl)-3-(4-methylpiperazin-1-yl)sulfonyl-benzamide]
IC50 [1]: > 10000 nM

CN(C)S(=O)(=O)c1ccc(N2CCOCC2)c(C(=O)Nc2ccc3[nH]c(=O)[nH]c(=O)c3c2)c1 [S37, 5-(dimethylsulfamoyl)-N-(2,4-dioxo-1H-quinazolin-6-yl)-2-morpholino-benzamide]
IC50 [1]: > 10000 nM

CN1Cc2cc(NC(=O)c3cc(S(=O)(=O)N(C)C)ccc3N3CCOCC3)ccc2NC1=O [S39, 5-(dimethylsulfamoyl)-N-(3-methyl-2-oxo-1,4-dihydroquinazolin-6-yl)-2-morpholino-benzamide]
IC50 [1]: < 200 nM

Cc1cc(O)nc2ccc(NC(=O)c3cc(S(=O)(=O)N(C)C)ccc3N3CCC(C)C3)cc12 (centres unmarked) [S41, 5-(dimethylsulfamoyl)-N-(2-hydroxy-4-methyl-6-quinolyl)-2-(3-methylpyrrolidin-1-yl)benzamide]
IC50 [1]: 500 to 1000 nM

Cc1cc(O)nc2ccc(NC(=O)c3cc(S(=O)(=O)N(C)C)ccc3N3CCC(F)C3)cc12 (centres unmarked) [S42, 5-(dimethylsulfamoyl)-2-(3-fluoropyrrolidin-1-yl)-N-(2-hydroxy-4-methyl-6-quinolyl)benzamide]
IC50 [1]: < 200 nM

COC1CCN(c2ccc(S(=O)(=O)N(C)C)cc2C(=O)Nc2ccc3nc(O)cc(C)c3c2)C1 (centres unmarked) [S43, 5-(dimethylsulfamoyl)-N-(2-hydroxy-4-methyl-6-quinolyl)-2-(3-methoxypyrrolidin-1-yl)benzamide]
IC50 [1]: 500 to 1000 nM

Cc1cc(O)nc2ccc(NC(=O)c3cc(S(=O)(=O)N(C)C)ccc3N3CCC(C(N)=O)C3)cc12 (centres unmarked) [S44, 1-[4-(dimethylsulfamoyl)-2-[(2-hydroxy-4-methyl-6-quinolyl)carbamoyl]phenyl]pyrrolidine-3-carboxamide]
IC50 [1]: < 200 nM
